Results on five compounds are retold here after patent US20250189514A1 (priority 2022, published 2025).

The test system of assay [1] is α6/3β2β3 nAChR. The format is cell-based, human.
In assay [2] the test system is α6/3β2β3 nAChR. How it is done: In one embodiment, FLIPR assay is used to identify agonists of 6β2β3 nAChR (including chimeric α6/3β2β3 nAChR as described above) mediated calcium flux. In this assay, the recombinant cells are incubated with a calcium sensitive dye (such as Ca5), exposed to a test compound, and calcium flux is imaged by FLIPR^TETRA.
• Spin down cells at 300×G for 5 min, aspirate supernatant, and resuspend in 10 ml plating medium. • Seed 25,000 cells/well in 50 μL (5×10^5cells/mL). • Incubate plates for 24 hours at 30° C. with 5% CO2 in a humidified atmosphere. Day 4 FLPR Assay • Wash plate with plate washer (4 washes x 100 μL/wash) using compound dilution buffer, leaving 25 μl in each well. • Add 25 μl of 2× Ca5 dye to each well. • Incubate at room temperature for 1 hr. • Wash plate with plate washer (4 washes x 100 μL/wash) using compound dilution buffer, leaving 25 μL in each well.
• Transfer plates to FLIPR for compound addition. Single addition plate of 2× agonist (25 μL). Control wells for agonists will be in column 23 and 24. […] Negative control wells received buffer+vehicle (25 μL). Functional Expression of α6β2β3 nAChR

Read-outs that look alike come from different tables or passages of the source. Where no end group is shown, it is not given here.

In the case of “α-conotoxin MII (GCCSNPVCHLEHSNLC; ends and bridges not checked; cysteine pairing not given here; UniProt P56636 49-64, looked up)”, the “effect on nicotine-evoked calcium flux (FLIPR signal)” value with α6/3β2β3 nAChR [1] is listed as “decreases the nicotine-evoked calcium flux in a dose-dependent manner”.

With `CO[C@H]1CC=C2CCN3CCC4=C(CC(=O)OC4)[C@]23C1` [DHbE], in the assay with α6/3β2β3 nAChR [1], the “IC100 DHBe” value was determined as 10 µM and the “effect on nicotine-evoked calcium flux (FLIPR signal)” value is reported as “decreases the nicotine-evoked calcium flux in a dose-dependent manner”.

`CN1CCCC1c1cccnc1` (stereo not shown) [nicotine]: the “nicotine EC80” value in the assay with α6/3β2β3 nAChR [2] (2nd addition in concentration response curve experiment) amounted to 236 nm. The same compound had an EC80 nicotine with α6/3β2β3 nAChR [2] (concentration used as agonist challenge in antagonist protocol) of 0.236 µM.

In the case of `CNC1(C)C2CCC(C2)C1(C)C` (stereo not shown) [mecamylamine], the “effect on nicotine-evoked calcium flux (FLIPR signal)” value in the assay on α6/3β2β3 nAChR [1] (transfected HEK293T cells incubated at 30° C. for 24-48 hour, antagonist at various concentration 3 min, then nicotine EC80 3.5 min, FIGS. 2A-2D) is recorded as “decreases the nicotine-evoked calcium flux in a dose-dependent manner”.

Consider `CCN1C[C@]2(COC(=O)c3ccccc3N3C(=O)C[C@H](C)C3=O)CC[C@H](OC)[C@@]34[C@@H]5C[C@H]6[C@H](OC)[C@@H]5[C@](O)(C[C@@H]6OC)[C@](O)([C@@H](OC)[C@H]23)[C@@H]14` [MLA], for which, in the assay with α6/3β2β3 nAChR [1], the “effect on nicotine-evoked calcium flux (FLIPR signal)” value is on record as “decreases the nicotine-evoked calcium flux in a dose-dependent manner”.
